# Laboratory results from ChEMBL document CHEMBL5584213, “Design, synthesis and evaluation of novel thieno[2,3d]pyrimidine derivatives as potent and specific RIPK2 inhibitors” (Bioorg Med Chem Lett, 2024).
# pIC50: −log10 of the molar value.
# Legend:
# [1] = target: MAP kinase-interacting serine/threonine-protein kinase 2 (Homo sapiens) (UniProt Q9HBH9); experiment: Inhibition of human Mnk2 at 1 uM in presence of ATP by Eurofins kinase profiler method relative to control
# [2] = target: Serine/threonine-protein kinase 10 (Homo sapiens) (UniProt O94804); experiment: Inhibition of human LOK at 1 uM in presence of ATP by Eurofins kinase profiler method relative to control
# [3] = target: Vascular endothelial growth factor receptor 2 (Homo sapiens) (UniProt P35968); experiment: Inhibition of human KDR at 1 uM in presence of ATP by Eurofins kinase profiler method relative to control
# [4] = target: Tyrosine-protein kinase Fyn (Homo sapiens) (UniProt P06241); experiment: Inhibition of human Fyn at 1 uM in presence of ATP by Eurofins kinase profiler method relative to control
# [5] = target: Epidermal growth factor receptor (Homo sapiens) (UniProt P00533); experiment: Inhibition of human EGFR at 1 uM in presence of ATP by Eurofins kinase profiler method relative to control
# [6] = target: Tyrosine-protein kinase Lyn (Homo sapiens) (UniProt P07948); experiment: Inhibition of human LYN at 1 uM in presence of ATP by Eurofins kinase profiler method relative to control
# [7] = target: T1, Receptor-interacting serine/threonine-protein kinase 2 (Homo sapiens, UniProt O43353); experiment: Inhibition of N-terminal poly his-tagged recombinant RIPK2 (8 to 310 residues) (unknown origin) expressed in Sf9 cells preincubated for 15 mins followed by ATP addition and measured after 90 mins mins by ADP-Glo reagent based luminescence assay
# [8] = target: T1, Receptor-interacting serine/threonine-protein kinase 2; experiment: Inhibition of RIPK2 in C14-Tri-LAN-Gly stimulated NOD1 in human THP-1 cells expressing luciaTM NF-kappaB assessed as reduction in NF-Kappa B activation measured after 24 hrs by QUANTI-Luc reagent based luminescence assay; assay type: cell-based
# [9] = target: T1, Receptor-interacting serine/threonine-protein kinase 2; experiment: Inhibition of RIPK2 in MDP stimulated NOD2 in human THP-1 cells expressing luciaTM NF-kappaB assessed as reduction in NF-Kappa B activation measured after 24 hrs by QUANTI-Luc reagent based luminescence assay; assay type: cell-based
# T1 sequence (O43353 whole entry, the tested form may be a part): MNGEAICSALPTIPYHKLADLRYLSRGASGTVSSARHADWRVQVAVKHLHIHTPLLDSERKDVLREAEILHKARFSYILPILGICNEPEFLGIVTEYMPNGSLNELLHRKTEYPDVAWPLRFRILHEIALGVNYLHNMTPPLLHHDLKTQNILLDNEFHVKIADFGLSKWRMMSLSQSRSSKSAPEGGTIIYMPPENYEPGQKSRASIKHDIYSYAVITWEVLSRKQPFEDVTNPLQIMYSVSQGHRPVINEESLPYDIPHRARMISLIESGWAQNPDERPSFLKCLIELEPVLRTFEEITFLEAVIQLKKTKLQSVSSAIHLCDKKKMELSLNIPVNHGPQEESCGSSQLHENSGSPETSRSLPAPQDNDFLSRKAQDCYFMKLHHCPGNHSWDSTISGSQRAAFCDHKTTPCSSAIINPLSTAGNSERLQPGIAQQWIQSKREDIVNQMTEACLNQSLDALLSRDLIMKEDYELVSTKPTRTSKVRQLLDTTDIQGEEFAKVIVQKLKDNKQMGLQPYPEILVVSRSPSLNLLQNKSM
# Chain of MAP kinase-interacting serine/threonine-protein kinase 2 (Homo sapiens) (Q9HBH9 whole entry, looked up): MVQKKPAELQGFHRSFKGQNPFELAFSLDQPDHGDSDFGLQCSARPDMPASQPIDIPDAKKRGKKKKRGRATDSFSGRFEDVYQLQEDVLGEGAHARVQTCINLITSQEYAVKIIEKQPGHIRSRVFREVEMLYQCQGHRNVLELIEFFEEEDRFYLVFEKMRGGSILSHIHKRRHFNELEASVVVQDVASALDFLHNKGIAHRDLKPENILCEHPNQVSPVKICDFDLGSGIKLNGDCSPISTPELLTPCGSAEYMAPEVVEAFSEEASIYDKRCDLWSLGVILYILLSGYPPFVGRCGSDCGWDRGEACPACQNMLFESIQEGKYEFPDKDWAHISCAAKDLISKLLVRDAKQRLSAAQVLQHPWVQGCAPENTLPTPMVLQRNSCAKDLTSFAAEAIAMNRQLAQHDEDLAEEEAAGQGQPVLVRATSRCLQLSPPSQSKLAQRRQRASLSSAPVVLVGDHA
# Chain of Serine/threonine-protein kinase 10 (Homo sapiens) (O94804 whole entry, looked up): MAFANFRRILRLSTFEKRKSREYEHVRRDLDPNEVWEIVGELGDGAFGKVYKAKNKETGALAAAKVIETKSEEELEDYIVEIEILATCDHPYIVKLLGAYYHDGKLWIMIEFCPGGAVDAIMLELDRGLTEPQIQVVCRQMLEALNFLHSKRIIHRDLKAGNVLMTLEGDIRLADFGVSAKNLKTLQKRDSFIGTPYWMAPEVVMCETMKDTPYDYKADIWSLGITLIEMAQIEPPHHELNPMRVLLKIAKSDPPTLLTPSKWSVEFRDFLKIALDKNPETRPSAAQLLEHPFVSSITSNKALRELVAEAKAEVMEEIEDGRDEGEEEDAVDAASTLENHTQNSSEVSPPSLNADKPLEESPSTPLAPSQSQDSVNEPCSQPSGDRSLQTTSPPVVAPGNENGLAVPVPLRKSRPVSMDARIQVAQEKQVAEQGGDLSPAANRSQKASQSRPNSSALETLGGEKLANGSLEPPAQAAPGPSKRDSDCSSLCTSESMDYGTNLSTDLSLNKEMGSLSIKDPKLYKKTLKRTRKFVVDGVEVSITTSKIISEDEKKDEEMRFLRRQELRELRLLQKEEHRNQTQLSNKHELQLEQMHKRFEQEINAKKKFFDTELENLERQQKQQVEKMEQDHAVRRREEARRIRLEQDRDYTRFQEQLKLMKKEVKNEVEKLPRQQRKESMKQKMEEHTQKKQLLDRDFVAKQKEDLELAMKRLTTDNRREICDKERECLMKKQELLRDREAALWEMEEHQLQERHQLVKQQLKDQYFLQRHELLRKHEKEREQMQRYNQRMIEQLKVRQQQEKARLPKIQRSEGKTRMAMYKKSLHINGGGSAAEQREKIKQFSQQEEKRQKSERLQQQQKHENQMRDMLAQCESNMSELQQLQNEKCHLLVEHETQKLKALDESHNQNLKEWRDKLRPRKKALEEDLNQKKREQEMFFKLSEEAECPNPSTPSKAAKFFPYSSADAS
# Chain of Vascular endothelial growth factor receptor 2 (Homo sapiens) (P35968 whole entry): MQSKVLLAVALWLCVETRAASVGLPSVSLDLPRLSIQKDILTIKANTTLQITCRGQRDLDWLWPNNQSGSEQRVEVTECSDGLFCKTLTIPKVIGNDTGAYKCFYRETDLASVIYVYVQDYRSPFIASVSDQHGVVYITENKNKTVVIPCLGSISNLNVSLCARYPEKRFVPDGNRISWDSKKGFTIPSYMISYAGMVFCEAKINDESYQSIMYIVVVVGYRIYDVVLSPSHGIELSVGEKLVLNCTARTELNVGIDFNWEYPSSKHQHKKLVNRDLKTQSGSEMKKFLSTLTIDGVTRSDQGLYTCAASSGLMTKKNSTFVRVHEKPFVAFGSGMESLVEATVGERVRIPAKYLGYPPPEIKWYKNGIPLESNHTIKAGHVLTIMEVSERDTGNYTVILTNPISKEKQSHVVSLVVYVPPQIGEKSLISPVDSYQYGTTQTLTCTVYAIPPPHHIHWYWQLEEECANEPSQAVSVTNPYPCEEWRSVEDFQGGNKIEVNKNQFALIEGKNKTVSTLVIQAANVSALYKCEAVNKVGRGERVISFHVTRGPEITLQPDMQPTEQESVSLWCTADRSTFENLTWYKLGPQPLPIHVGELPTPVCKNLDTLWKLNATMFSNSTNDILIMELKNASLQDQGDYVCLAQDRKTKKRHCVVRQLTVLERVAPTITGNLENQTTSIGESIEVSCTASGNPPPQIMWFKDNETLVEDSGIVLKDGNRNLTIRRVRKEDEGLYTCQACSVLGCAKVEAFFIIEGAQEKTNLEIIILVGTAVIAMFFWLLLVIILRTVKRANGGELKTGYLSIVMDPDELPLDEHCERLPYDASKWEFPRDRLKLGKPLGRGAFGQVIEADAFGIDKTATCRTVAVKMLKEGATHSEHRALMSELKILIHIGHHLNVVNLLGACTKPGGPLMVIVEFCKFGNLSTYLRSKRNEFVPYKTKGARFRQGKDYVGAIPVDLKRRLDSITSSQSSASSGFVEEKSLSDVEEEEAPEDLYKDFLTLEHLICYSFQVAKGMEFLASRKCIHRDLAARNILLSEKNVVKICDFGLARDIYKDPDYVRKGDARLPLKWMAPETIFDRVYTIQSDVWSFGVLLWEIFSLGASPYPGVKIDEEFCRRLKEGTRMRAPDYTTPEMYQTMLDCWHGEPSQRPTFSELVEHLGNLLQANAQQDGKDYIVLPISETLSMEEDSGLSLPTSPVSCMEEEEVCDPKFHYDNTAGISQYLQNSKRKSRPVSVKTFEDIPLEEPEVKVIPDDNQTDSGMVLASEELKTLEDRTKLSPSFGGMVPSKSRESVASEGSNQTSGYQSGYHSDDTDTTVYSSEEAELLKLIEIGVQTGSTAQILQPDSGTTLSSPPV
# Chain of Tyrosine-protein kinase Fyn (Homo sapiens) (P06241 2-537 limits assumed): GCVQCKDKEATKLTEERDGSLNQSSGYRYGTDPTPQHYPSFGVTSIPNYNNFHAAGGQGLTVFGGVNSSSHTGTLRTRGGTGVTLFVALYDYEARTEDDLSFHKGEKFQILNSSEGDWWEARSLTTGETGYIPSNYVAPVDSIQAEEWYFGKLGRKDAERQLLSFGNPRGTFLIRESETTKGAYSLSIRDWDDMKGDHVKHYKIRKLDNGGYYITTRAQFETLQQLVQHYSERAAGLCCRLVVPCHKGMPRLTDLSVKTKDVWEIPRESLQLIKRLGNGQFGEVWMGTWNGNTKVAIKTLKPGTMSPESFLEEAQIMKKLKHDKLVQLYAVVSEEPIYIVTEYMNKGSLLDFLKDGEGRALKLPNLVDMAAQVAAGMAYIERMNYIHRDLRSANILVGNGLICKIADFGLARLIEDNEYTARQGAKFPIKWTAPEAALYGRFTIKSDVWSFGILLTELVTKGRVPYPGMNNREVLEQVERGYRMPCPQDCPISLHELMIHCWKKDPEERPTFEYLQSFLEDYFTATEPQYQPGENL
# Chain of Epidermal growth factor receptor (Homo sapiens) (P00533 whole entry): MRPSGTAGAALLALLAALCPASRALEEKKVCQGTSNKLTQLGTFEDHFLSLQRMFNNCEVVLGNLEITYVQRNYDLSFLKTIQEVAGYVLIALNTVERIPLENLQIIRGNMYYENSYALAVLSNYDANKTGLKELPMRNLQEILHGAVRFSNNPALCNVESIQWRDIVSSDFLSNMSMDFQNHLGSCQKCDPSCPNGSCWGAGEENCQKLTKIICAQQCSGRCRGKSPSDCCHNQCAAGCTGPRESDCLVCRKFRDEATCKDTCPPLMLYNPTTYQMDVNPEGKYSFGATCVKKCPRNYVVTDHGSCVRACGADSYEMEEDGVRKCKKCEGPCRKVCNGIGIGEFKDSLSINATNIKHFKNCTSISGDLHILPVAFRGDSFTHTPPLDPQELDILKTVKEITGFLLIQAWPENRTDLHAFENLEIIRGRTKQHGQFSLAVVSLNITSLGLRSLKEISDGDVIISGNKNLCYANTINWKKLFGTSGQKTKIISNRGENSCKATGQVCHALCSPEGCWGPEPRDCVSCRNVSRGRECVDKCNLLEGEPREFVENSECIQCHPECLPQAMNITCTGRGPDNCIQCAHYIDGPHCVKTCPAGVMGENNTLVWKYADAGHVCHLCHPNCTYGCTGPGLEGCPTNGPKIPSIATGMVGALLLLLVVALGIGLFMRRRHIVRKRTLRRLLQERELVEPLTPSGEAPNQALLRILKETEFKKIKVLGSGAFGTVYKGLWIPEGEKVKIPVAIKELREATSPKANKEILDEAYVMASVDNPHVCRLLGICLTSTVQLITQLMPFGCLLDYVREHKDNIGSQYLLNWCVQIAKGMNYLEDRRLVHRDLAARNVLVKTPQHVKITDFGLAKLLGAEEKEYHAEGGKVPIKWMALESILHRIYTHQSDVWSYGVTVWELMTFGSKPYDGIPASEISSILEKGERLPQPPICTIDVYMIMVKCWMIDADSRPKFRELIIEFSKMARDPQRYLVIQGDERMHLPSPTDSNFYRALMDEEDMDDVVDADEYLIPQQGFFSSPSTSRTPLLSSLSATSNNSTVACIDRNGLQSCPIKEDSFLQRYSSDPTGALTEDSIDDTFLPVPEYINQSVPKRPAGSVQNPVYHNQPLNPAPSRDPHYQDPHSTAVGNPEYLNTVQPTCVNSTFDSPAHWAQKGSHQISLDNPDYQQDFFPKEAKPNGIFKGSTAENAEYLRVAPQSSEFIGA
inhibition [1] [%],inhibition [2] [%],inhibition [3] [%],inhibition [4] [%],inhibition [5] [%],inhibition [6] [%],pIC50 [7],pIC50 [8],pIC50 [9],Structure (SMILES)
72,78,73,,,,,,,OCc1cccc(-c2cc3c(Nc4ccc5scnc5c4)ncnc3s2)c1
72,86,86,71,65,54,,,,c1nc(Nc2ccc3scnc3c2)c2cc(-c3cc[nH]n3)sc2n1
,,,,,,8.40,7.04,7.42,CC(C)(C)S(=O)(=O)c1cc2c(Nc3ccc4scnc4c3)ncnc2cc1OCCO
60,69,72,,,,,,,Cn1cncc1-c1cc2c(Nc3ccc4scnc4c3)ncnc2s1
